Laboratory results reported in publication PMC5427923, “A novel CCR2 antagonist inhibits atherogenesis in apoE deficient mice by achieving high receptor occupancy” (Scientific Reports, 2017).
Like-named read-outs stand apart in the source and are kept apart here.

How the values were obtained:
murine CCR2 (mCCR2) [1] = target: T1, murine CCR2 (mCCR2) (Mus musculus, UniProt P51683); test: [3H]INCB3344 displacement assay on CHO-mCCR2 membranes; type: binding; details: displacement of 5 nM [3H]INCB3344, CHO-mCCR2 membranes, 25 °C
T1 construct: expressed in transfected cells; host or cells: CHO cells, transient transfection (PEI) with pcDNA3.1+ plasmid; membrane preparation
T1 sequence (P51683 whole entry): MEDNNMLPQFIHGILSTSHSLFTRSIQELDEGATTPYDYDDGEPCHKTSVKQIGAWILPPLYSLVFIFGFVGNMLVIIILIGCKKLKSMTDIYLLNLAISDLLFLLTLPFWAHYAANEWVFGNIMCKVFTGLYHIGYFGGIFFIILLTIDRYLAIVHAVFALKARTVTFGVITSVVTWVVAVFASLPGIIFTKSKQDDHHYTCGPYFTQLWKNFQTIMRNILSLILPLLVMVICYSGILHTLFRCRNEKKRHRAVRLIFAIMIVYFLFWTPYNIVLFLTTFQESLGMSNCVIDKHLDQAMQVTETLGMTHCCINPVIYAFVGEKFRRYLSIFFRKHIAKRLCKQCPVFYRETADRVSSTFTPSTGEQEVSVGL
Description: Radioligand binding assays were performed in a 100 µL reaction volume containing 50 mM Tris-HCl buffer (pH 7.4), 5 mM MgCl2, 0.1% 3-[(3-cholamidopropyl)-dimethylammonio]-1-propanesulfonic acid (CHAPS), 5 nM [^3H]INCB3344 and 50 to 60 µg of membrane protein at 25 °C. Non-specific binding was determined with 10 μM of the cold ligand INCB3344. Displacement assays were carried out using 9 concentrations of competing ligand, ranging from 0.1 nM to 100 μM, for 120 min of incubation. The kinetic parameters of 15a were also determined at 25 °C using a competition association assay as previously described, [27]. […] Filter-bound radioactivity was determined by scintillation spectrometry after addition of Microscint scintillation cocktail (Perkin-Elmer, Groningen, the Netherlands). […]
All radioligand binding assays were analyzed using Prism 6.0 (GraphPad software, San Diego, CA, USA). […] Ki values were calculated from IC50 values obtained by non-linear regression analysis of the displacement assays and by using the Cheng-Prusoff equation[47]. Dissociation rate constants k off were determined by fitting the dissociation data using an exponential decay model. […] The kinetic profile of compound 15a was determined by calculation of its kinetic rate index (KRI) value. […] In addition, the RT was calculated by obtaining the reciprocal of the k off. Data obtained from in vivo experiments are expressed as mean ± SEM. […]

CCR2 = test: Pharmacokinetics-based prediction of target occupancy; set-up: species or system mouse; details: calculated/simulated from plasma concentrations, single dose 5 mg/kg i.p., for 24 hours
Description: The target occupancy was calculated for each measurement of the drug concentration, according to equation (1), in which [C] is the concentration of the drug in the blood and KD is the drug target affinity.1 TargetOccupancy(%)=[C]/[C]+KD×100%
In addition, a simple mathematical model was used to simulate target occupancy for the observed in vivo pharmacokinetics and in vitro binding kinetics according to the equations in the next section (equations (3–5)).
To determine the maximal value of k off that would prolong the receptor occupancy even further, we used equation (2)[28], in which BF represents the percentage of target occupancy divided by 100 and t 1/2el represents the plasma elimination half-life (0.693/k el). In this case we set BF to 0.90, as 90% represents the minimum value of target occupancy to achieve efficacy. To obtain the elimination rate constant of compound 15a, a linear regression analysis of the natural logarithm of the concentrations versus time was performed, and the slope coefficient was used as the elimination rate constant k el.2 koff<0.693⋅(1−BF)/t1/2el
The concentrations of unbound drug in the blood [C] and target-bound drug [LR] were modeled according to equations (3–5). […]
The concentration of the target-bound drug is calculated according to equation (5):5 d[LR]/dt=kon⋅[C]⋅[Rfree]−koff⋅[LR] […]

[2] = system: leucocyte migration towards the peritoneal cavity; test: Pilot study: leucocyte migration towards the peritoneal cavity; type: in vivo, mouse; details: data not shown
Description: To measure plasma concentrations of 15a over time, Western type diet fed mice were injected with 5 mg/kg 15a, after which blood samples were taken at fixed time points (1, 2, 6 and 24 hours after injection). Blood samples were processed as described below under “Measurement of 15a plasma levels”. The final dose of 5 mg/kg/day was based on a pilot study in which two different doses (1.5 and 5 mg/kg/day) were tested using leucocyte migration towards the peritoneal cavity as a read-out. […] In addition, the dose of 5 mg/kg was also based on a previous study with TAK-779[38], in which a dose of 5 mg/kg was used.

murine CCR2 (mCCR2) [3] = target: T1, murine CCR2 (mCCR2); test: [3H]INCB3344 association, dissociation and competition association (kinetic) assays on CHO-mCCR2 membranes; type: binding
Description: Radioligand binding assays were performed in a 100 µL reaction volume containing 50 mM Tris-HCl buffer (pH 7.4), 5 mM MgCl2, 0.1% 3-[(3-cholamidopropyl)-dimethylammonio]-1-propanesulfonic acid (CHAPS), 5 nM [^3H]INCB3344 and 50 to 60 µg of membrane protein at 25 °C. Non-specific binding was determined with 10 μM of the cold ligand INCB3344. Displacement assays were carried out using 9 concentrations of competing ligand, ranging from 0.1 nM to 100 μM, for 120 min of incubation. The kinetic parameters of 15a were also determined at 25 °C using a competition association assay as previously described, [27]. For association and competition association experiments, CHO-mCCR2 membranes were added to the reaction volume at different time points, in the absence or presence of 30 nM of competing ligand. For dissociation experiments, CHO-mCCR2 membranes were first incubated with 5 nM [^3H]INCB3344 for 60 min. Dissociation was initiated by addition of 10 µM of INCB3344 at different time points. For all experiments, incubation was terminated by dilution with ice-cold 50 mM Tris-HCl buffer supplemented with 5 mM MgCl2 and 0.05% CHAPS. Separation of bound from free radioligand was performed by rapid filtration over a 96-well GF/B filter plate using a Perkin Elmer Filtermate-harvester (Perkin Elmer, Groningen, the Netherlands) in the case of displacement assays; or over GF/B filters using a Brandel harvester 24 (Brandel, Gaithersburg, MD, USA) for kinetic assays. Filter-bound radioactivity was determined by scintillation spectrometry after addition of Microscint scintillation cocktail (Perkin-Elmer, Groningen, the Netherlands). The P-E 2450 Microbeta2 plate counter (Perkin Elmer, Groningen, The Netherlands) was used for displacement assays, and the TRI Carb 2900 TR counter (Perkin Elmer, Groningen, The Netherlands) for kinetic assays.
All radioligand binding assays were analyzed using Prism 6.0 (GraphPad software, San Diego, CA, USA). All data shown represent means ± SEM of at least three independent experiments performed in duplicate. Ki values were calculated from IC50 values obtained by non-linear regression analysis of the displacement assays and by using the Cheng-Prusoff equation[47]. Dissociation rate constants k off were determined by fitting the dissociation data using an exponential decay model. Association rate constants k on were obtained by converting the apparent association rate constants k obs according to the equation k on = (k obs − k off)/[L], in which L is the radioligand concentration used for the experiments, k obs is the constant rate determined using exponential association analysis and k off represents the mean k off value obtained independently in the dissociation experiments. The kinetic profile of compound 15a was determined by calculation of its kinetic rate index (KRI) value. The KRI values were calculated according to the equation KRI = Bt1/Bt2, in which Bt represents the specific radioligand binding measured at t1 = 15 min and t2 = 210 min. In addition, the association and dissociation rates of 15a were obtained by nonlinear regression analysis of the competition association data using the equations described by Motulsky and Mahan[27]. […] In addition, the RT was calculated by obtaining the reciprocal of the k off. Data obtained from in vivo experiments are expressed as mean ± SEM. […] Non-Gaussian distributed data were analyzed using a two-tailed Mann-Whitney U test. […]

Question: `CC(C)[C@]1(C(=O)N2CCc3ccc(C(F)(F)F)cc3C2)CC[C@@H](N[C@@H]2CCc3cc(Br)ccc32)C1` [15a, ((1S,3R)-3-(((R)-5-bromo-2,3-dihydro-1H-inden-1-yl)amino)-1-isopropylcyclopentyl)(7-(trifluoromethyl)-3,4-dihydroisoquinolin-2(1H)-yl)methanone] was tested. Which Ki (murine CCR2 (mCCR2) [1]) did it give?
Answer: The Ki was 10.6 nM.

Question: What about the “target occupancy (CCR2)” value (CCR2) of the same compound?
Answer: Its value is greater than 90%.

Question: And the “effective in inhibiting leucocyte migration” value ([2]; 1.5 mg/kg per day)?
Answer: The value was “not effective”.

Question: And the “effective in inhibiting leucocyte migration” value ([2]; 5 mg/kg per day)?
Answer: The value was “was”.

Question: What about the kon (murine CCR2 (mCCR2) [3]; mCCR2, 25 °C) of the same compound?
Answer: The kon was 117000 M⁻¹ s⁻¹.

Question: What about the “KRI (kinetic rate index)” value (murine CCR2 (mCCR2) [3]; mCCR2, 25 °C, KRI = Bt1/Bt2, t1 = 15 min, t2 = 210 min) of the same compound?
Answer: Its value is 1.6.

Question: What about the Kd (murine CCR2 (mCCR2) [3]; mCCR2, 25 °C, read-out: K D (kinetic, k off/k on)) of the same compound?
Answer: Its Kd is 7.4 ± 1.5 nM.

Question: And the koff (murine CCR2 (mCCR2) [3]; mCCR2, 25 °C, read-out: k off (converted))?
Answer: Its koff is 0.00085 s⁻¹.

Question: And the koff (murine CCR2 (mCCR2) [3]; mCCR2, corresponding to 0.051 min^−1, read-out: k off (as set for the simulations) (converted))?
Answer: The koff was 0.00085 s⁻¹.
